Results reported in the NIST ThermoML archive (doi:10.1021/je8004062).
Numbers after ± are expanded uncertainties.

Experiment: mn = molality of the nth substance listed, in mol/kg
Details: 101 kPa, Liquid

## [Cl-].[Cl-].[Cl-].[La+3] [lanthanum chloride] + O
293.15 K, m1 = 0.0996
  mass density: 1020.8 ± 0.1 kg/m3
  viscosity: 1.068 ± 0.013 mPa·s
293.15 K, m1 = 0.1997
  mass density: 1043.7 ± 0.1 kg/m3
  viscosity: 1.109 ± 0.013 mPa·s
293.15 K, m1 = 0.2997
  mass density: 1065.6 ± 0.2 kg/m3
  viscosity: 1.176 ± 0.014 mPa·s
293.15 K, m1 = 0.3994
  mass density: 1086.9 ± 0.2 kg/m3
  viscosity: 1.255 ± 0.015 mPa·s
293.15 K, m1 = 0.4984
  mass density: 1107.7 ± 0.2 kg/m3
  viscosity: 1.34 ± 0.016 mPa·s
293.15 K, m1 = 0.6
  mass density: 1128.9 ± 0.2 kg/m3
  viscosity: 1.432 ± 0.017 mPa·s
293.15 K, m1 = 0.6981
  mass density: 1149.1 ± 0.2 kg/m3
  viscosity: 1.524 ± 0.018 mPa·s
293.15 K, m1 = 0.7983
  mass density: 1169.6 ± 0.2 kg/m3
  viscosity: 1.621 ± 0.019 mPa·s
293.15 K, m1 = 0.9256
  mass density: 1195.5 ± 0.2 kg/m3
  viscosity: 1.745 ± 0.02 mPa·s
293.15 K, m1 = 1.201
  mass density: 1251.1 ± 0.3 kg/m3
  viscosity: 2.02 ± 0.023 mPa·s
298.15 K, m1 = 0.0996
  mass density: 1019.4 ± 0.1 kg/m3
  viscosity: 0.9503 ± 0.012 mPa·s
298.15 K, m1 = 0.1997
  mass density: 1042.1 ± 0.1 kg/m3
  viscosity: 0.9881 ± 0.012 mPa·s
298.15 K, m1 = 0.2997
  mass density: 1063.8 ± 0.2 kg/m3
  viscosity: 1.049 ± 0.013 mPa·s
298.15 K, m1 = 0.3994
  mass density: 1085 ± 0.2 kg/m3
  viscosity: 1.12 ± 0.014 mPa·s
298.15 K, m1 = 0.4984
  mass density: 1105.8 ± 0.2 kg/m3
  viscosity: 1.196 ± 0.015 mPa·s
298.15 K, m1 = 0.6
  mass density: 1126.9 ± 0.2 kg/m3
  viscosity: 1.279 ± 0.015 mPa·s
298.15 K, m1 = 0.6981
  mass density: 1147.2 ± 0.2 kg/m3
  viscosity: 1.361 ± 0.016 mPa·s
298.15 K, m1 = 0.7983
  mass density: 1167.7 ± 0.2 kg/m3
  viscosity: 1.447 ± 0.017 mPa·s
298.15 K, m1 = 0.9256
  mass density: 1193.7 ± 0.2 kg/m3
  viscosity: 1.558 ± 0.018 mPa·s
298.15 K, m1 = 1.201
  mass density: 1249.5 ± 0.3 kg/m3
  viscosity: 1.804 ± 0.021 mPa·s
303.15 K, m1 = 0.0996
  mass density: 1018 ± 0.1 kg/m3
  viscosity: 0.8517 ± 0.011 mPa·s
303.15 K, m1 = 0.1997
  mass density: 1040.4 ± 0.1 kg/m3
  viscosity: 0.8863 ± 0.011 mPa·s
303.15 K, m1 = 0.2997
  mass density: 1062 ± 0.2 kg/m3
  viscosity: 0.9414 ± 0.012 mPa·s
303.15 K, m1 = 0.3994
  mass density: 1083.2 ± 0.2 kg/m3
  viscosity: 1.006 ± 0.012 mPa·s
303.15 K, m1 = 0.4984
  mass density: 1103.9 ± 0.2 kg/m3
  viscosity: 1.075 ± 0.013 mPa·s
303.15 K, m1 = 0.6
  mass density: 1125 ± 0.2 kg/m3
  viscosity: 1.149 ± 0.014 mPa·s
303.15 K, m1 = 0.6981
  mass density: 1145.3 ± 0.2 kg/m3
  viscosity: 1.224 ± 0.015 mPa·s
303.15 K, m1 = 0.7983
  mass density: 1165.8 ± 0.2 kg/m3
  viscosity: 1.301 ± 0.016 mPa·s
303.15 K, m1 = 0.9256
  mass density: 1191.8 ± 0.2 kg/m3
  viscosity: 1.402 ± 0.017 mPa·s
303.15 K, m1 = 1.201
  mass density: 1247.8 ± 0.3 kg/m3
  viscosity: 1.624 ± 0.019 mPa·s

## [Cl-].[Na+] [sodium chloride] + O
293.15 K, m1 = 0.2076
  mass density: 1006.3 ± 0.1 kg/m3
  viscosity: 1.012 ± 0.013 mPa·s
293.15 K, m1 = 0.3959
  viscosity: 1.031 ± 0.013 mPa·s
293.15 K, m1 = 0.5997
  mass density: 1022 ± 0.1 kg/m3
  viscosity: 1.054 ± 0.013 mPa·s
293.15 K, m1 = 0.7817
  mass density: 1029 ± 0.1 kg/m3
  viscosity: 1.073 ± 0.013 mPa·s
293.15 K, m1 = 1.01
  mass density: 1037.6 ± 0.1 kg/m3
  viscosity: 1.098 ± 0.013 mPa·s
293.15 K, m1 = 1.199
  mass density: 1044.5 ± 0.1 kg/m3
  viscosity: 1.117 ± 0.014 mPa·s
293.15 K, m1 = 1.502
  mass density: 1055.4 ± 0.2 kg/m3
  viscosity: 1.151 ± 0.014 mPa·s
293.15 K, m1 = 1.794
  mass density: 1065.7 ± 0.2 kg/m3
  viscosity: 1.184 ± 0.014 mPa·s
293.15 K, m1 = 2.004
  mass density: 1073.1 ± 0.2 kg/m3
  viscosity: 1.208 ± 0.015 mPa·s
293.15 K, m1 = 2.409
  mass density: 1086.9 ± 0.2 kg/m3
  viscosity: 1.256 ± 0.015 mPa·s
293.15 K, m1 = 3
  mass density: 1106.5 ± 0.2 kg/m3
  viscosity: 1.332 ± 0.016 mPa·s
293.15 K, m1 = 3.595
  mass density: 1125.5 ± 0.2 kg/m3
  viscosity: 1.412 ± 0.017 mPa·s
293.15 K, m1 = 4.186
  mass density: 1143.5 ± 0.2 kg/m3
  viscosity: 1.496 ± 0.018 mPa·s
293.15 K, m1 = 4.812
  mass density: 1162.1 ± 0.2 kg/m3
  viscosity: 1.592 ± 0.019 mPa·s
298.15 K, m1 = 0.2076
  mass density: 1005.7 ± 0.1 kg/m3
  viscosity: 0.9082 ± 0.011 mPa·s
298.15 K, m1 = 0.3959
  mass density: 1013.2 ± 0.1 kg/m3
  viscosity: 0.9237 ± 0.011 mPa·s
298.15 K, m1 = 0.5997
  mass density: 1021.2 ± 0.1 kg/m3
  viscosity: 0.9408 ± 0.012 mPa·s
298.15 K, m1 = 0.7817
  mass density: 1028.1 ± 0.1 kg/m3
  viscosity: 0.9565 ± 0.012 mPa·s
298.15 K, m1 = 1.01
  viscosity: 0.9769 ± 0.012 mPa·s
298.15 K, m1 = 1.199
  mass density: 1043.4 ± 0.1 kg/m3
  viscosity: 0.9944 ± 0.012 mPa·s
298.15 K, m1 = 1.502
  mass density: 1054.3 ± 0.2 kg/m3
  viscosity: 1.024 ± 0.013 mPa·s
298.15 K, m1 = 1.794
  mass density: 1064.5 ± 0.2 kg/m3
  viscosity: 1.054 ± 0.013 mPa·s
298.15 K, m1 = 2.004
  mass density: 1071.8 ± 0.2 kg/m3
  viscosity: 1.077 ± 0.013 mPa·s
298.15 K, m1 = 2.409
  mass density: 1085.5 ± 0.2 kg/m3
  viscosity: 1.124 ± 0.014 mPa·s
298.15 K, m1 = 3
  mass density: 1105 ± 0.2 kg/m3
  viscosity: 1.2 ± 0.015 mPa·s
298.15 K, m1 = 3.595
  mass density: 1123.8 ± 0.2 kg/m3
  viscosity: 1.288 ± 0.015 mPa·s
298.15 K, m1 = 4.186
  mass density: 1141.7 ± 0.2 kg/m3
  viscosity: 1.385 ± 0.017 mPa·s
298.15 K, m1 = 4.812
  mass density: 1160 ± 0.2 kg/m3
  viscosity: 1.502 ± 0.018 mPa·s
303.15 K, m1 = 0.2076
  mass density: 1004 ± 0.1 kg/m3
  viscosity: 0.8115 ± 0.01 mPa·s
303.15 K, m1 = 0.3959
  mass density: 1011.7 ± 0.1 kg/m3
  viscosity: 0.8306 ± 0.01 mPa·s
303.15 K, m1 = 0.5997
  viscosity: 0.8489 ± 0.011 mPa·s
303.15 K, m1 = 0.7817
  mass density: 1026.4 ± 0.1 kg/m3
  viscosity: 0.8638 ± 0.011 mPa·s
303.15 K, m1 = 1.01
  mass density: 1034.8 ± 0.1 kg/m3
  viscosity: 0.8825 ± 0.011 mPa·s
303.15 K, m1 = 1.199
  mass density: 1041.4 ± 0.1 kg/m3
  viscosity: 0.898 ± 0.011 mPa·s
303.15 K, m1 = 1.502
  mass density: 1052.3 ± 0.1 kg/m3
  viscosity: 0.9236 ± 0.011 mPa·s
303.15 K, m1 = 1.794
  mass density: 1062.5 ± 0.2 kg/m3
  viscosity: 0.9496 ± 0.012 mPa·s
303.15 K, m1 = 2.004
  mass density: 1069.7 ± 0.2 kg/m3
  viscosity: 0.9695 ± 0.012 mPa·s
303.15 K, m1 = 2.409
  mass density: 1083.4 ± 0.2 kg/m3
  viscosity: 1.011 ± 0.013 mPa·s
303.15 K, m1 = 3
  mass density: 1102.7 ± 0.2 kg/m3
  viscosity: 1.08 ± 0.013 mPa·s
303.15 K, m1 = 3.595
  mass density: 1121.4 ± 0.2 kg/m3
  viscosity: 1.162 ± 0.014 mPa·s
303.15 K, m1 = 4.186
  mass density: 1139.2 ± 0.2 kg/m3
  viscosity: 1.256 ± 0.015 mPa·s
303.15 K, m1 = 4.812
  mass density: 1157.5 ± 0.2 kg/m3
  viscosity: 1.373 ± 0.016 mPa·s
